Laboratory results taken from PMC4976367, “Dimethyl fumarate blocks pro-inflammatory cytokine production via inhibition of TLR induced M1 and K63 ubiquitin chain formation” (Scientific Reports, 2016).
Where a name gives a salt, the structure may show the parent alone.

Columns and labels:
Format in all cases: biochemical
Ube2W = Ube2W (Homo sapiens, UniProt Q96B02); assay: E2 ubiquitin loading assay, panel of […] E2s at two fixed DMF concentrations
Ubc13 = biological target: T1, Ubc13 (Homo sapiens, UniProt P61088); assay: MALDI-TOF intact mass shift (covalent adduct, +[…] Da); IC50 from E2 ubiquitin loading assay with purified UBE1 and E2
T1 construct: gene UBE2N; recombinant Ubc13
T1 sequence (P61088 1-152): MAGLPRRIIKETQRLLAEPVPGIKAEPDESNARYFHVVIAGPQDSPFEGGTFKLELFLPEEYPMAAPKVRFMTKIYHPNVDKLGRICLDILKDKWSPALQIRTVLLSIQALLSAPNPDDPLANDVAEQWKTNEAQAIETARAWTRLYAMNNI

Ube2T = biological target: T2, Ube2T (Homo sapiens, UniProt Q9NPD8); assay: E2 ubiquitin loading assay, panel of […] E2s at two fixed DMF concentrations
T2 sequence (Q9NPD8 1-197): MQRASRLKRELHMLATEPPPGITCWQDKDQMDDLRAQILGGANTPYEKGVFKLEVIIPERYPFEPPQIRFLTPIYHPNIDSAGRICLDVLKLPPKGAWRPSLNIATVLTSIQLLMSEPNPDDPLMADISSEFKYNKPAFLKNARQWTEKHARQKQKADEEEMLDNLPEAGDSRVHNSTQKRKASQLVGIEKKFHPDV

UbcH7 = biological target: T3, UbcH7 (Homo sapiens, UniProt P68036); assay: MALDI-TOF intact mass shift (covalent adducts, +[…] and +[…] Da); IC50 from E2 ubiquitin loading assay with purified UBE1 and E2
T3 construct: gene UBE2L3; recombinant UbcH7
T3 sequence (P68036 whole entry, one chain of several): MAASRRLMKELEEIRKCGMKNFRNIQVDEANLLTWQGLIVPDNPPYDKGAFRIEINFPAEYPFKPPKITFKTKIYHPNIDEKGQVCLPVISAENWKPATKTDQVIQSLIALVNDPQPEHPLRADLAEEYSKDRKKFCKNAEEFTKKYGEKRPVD

Ube2S = biological target: T4, Ube2S (Homo sapiens, UniProt Q16763); assay: E2 ubiquitin loading assay, panel of […] E2s at two fixed DMF concentrations
T4 sequence (Q16763 1-222): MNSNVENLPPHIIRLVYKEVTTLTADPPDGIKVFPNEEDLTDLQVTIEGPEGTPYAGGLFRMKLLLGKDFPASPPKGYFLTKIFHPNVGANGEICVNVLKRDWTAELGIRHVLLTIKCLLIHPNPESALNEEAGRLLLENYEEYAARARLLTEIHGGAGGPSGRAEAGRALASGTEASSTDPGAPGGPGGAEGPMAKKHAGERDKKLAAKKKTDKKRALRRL
T4 sequence (P22314 2-1058 partner): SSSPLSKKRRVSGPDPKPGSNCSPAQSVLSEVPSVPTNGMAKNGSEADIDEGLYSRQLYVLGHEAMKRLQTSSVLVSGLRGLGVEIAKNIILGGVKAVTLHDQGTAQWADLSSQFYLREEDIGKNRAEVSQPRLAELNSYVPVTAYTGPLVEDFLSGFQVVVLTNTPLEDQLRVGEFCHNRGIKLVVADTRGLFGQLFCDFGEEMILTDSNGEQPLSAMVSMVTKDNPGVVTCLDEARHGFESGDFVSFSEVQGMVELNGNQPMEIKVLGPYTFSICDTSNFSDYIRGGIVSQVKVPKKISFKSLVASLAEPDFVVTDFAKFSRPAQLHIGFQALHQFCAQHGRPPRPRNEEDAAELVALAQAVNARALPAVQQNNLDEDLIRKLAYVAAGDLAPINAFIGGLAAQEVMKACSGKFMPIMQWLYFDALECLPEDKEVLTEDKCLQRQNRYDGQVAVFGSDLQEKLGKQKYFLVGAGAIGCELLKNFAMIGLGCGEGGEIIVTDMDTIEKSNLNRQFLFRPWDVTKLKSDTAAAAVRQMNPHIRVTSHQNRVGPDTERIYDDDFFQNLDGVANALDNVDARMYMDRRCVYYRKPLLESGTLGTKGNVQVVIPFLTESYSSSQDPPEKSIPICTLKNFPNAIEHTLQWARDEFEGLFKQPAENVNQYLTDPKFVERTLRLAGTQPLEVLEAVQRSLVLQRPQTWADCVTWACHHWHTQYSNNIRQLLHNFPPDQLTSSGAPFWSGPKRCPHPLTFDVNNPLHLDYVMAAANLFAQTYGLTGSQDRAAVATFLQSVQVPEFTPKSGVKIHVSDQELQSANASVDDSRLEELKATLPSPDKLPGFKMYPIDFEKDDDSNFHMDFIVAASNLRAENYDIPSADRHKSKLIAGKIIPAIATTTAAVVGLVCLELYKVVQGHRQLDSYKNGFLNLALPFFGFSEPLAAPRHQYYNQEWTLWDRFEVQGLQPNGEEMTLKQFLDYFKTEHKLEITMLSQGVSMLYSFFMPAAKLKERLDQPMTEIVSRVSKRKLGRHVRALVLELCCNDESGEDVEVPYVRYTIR

Ube2R1 = biological target: T5, Ube2R1 (Homo sapiens, UniProt P49427); assay: as above
T5 construct: gene CDC34
T5 sequence (P49427 1-236): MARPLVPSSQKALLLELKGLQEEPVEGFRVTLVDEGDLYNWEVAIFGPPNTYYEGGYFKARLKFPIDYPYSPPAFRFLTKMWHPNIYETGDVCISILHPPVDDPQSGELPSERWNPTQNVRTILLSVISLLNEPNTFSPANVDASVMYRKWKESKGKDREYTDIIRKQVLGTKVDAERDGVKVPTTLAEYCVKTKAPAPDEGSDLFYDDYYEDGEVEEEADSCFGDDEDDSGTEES

Ube2W, sequence (Q96B02 whole entry, one chain of several): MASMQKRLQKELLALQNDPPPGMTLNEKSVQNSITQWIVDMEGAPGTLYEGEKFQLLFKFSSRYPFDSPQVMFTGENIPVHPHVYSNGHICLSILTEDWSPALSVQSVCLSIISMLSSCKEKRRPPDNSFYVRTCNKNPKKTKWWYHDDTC

For COC(=O)/C=C/C(=O)OC [Dimethyl fumarate], the “E2 ubiquitin loading assay, panel of 24 E2s at two fixed DMF concentrations” value (“E2 ubiquitin loading assay, panel” for short) (Ube2W) was “UbcH7, Ube2W, Ube2T, Ube2S and Ube2R1 being most strongly inhibited”, the IC50 (Ubc13) was 10 to 20 µM and the “E2 ubiquitin loading assay, panel” value (Ube2T) was “UbcH7, Ube2W, Ube2T, Ube2S and Ube2R1 being most strongly inhibited”. The IC50 (UbcH7) was less than 10 µM, the “E2 ubiquitin loading assay, panel” value (Ube2S) was “UbcH7, Ube2W, Ube2T, Ube2S and Ube2R1 being most strongly inhibited” and the “E2 ubiquitin loading assay, panel” value (Ube2R1) was “UbcH7, Ube2W, Ube2T, Ube2S and Ube2R1 being most strongly inhibited”.
